Data taken from patent US20080279866A1, “Induction of immunosuppression by inhibition of ATM” (The Brigham and Women's Hospital, Inc., priority 2006, published 2008).

Tests used:
Atm deficient T cells = test: Stimulation of Atm deficient T cells with anti-CD3 and CD28 with or without NAC; format: cell-based, mouse; conditions: 2 mM NAC
Description: Mice: Heterozygous 129S6/SvEvTac-Atm^tm1-Awb mice […] were purchased from the Jackson Laboratory (Bar Harbor, Me.). An independently generated Atm knockout mouse model was used to confirm our observations (Borghesani, et al., Proc. Nat'l Acad. Sci. USA 97:3336 (2000)). All mice were housed under microisolator conditions in autoclaved cages and were maintained on irradiated feed and autoclaved acidified drinking water. All sentinel mice housed in the same colony were free of viral antibodies. Four- to 6-week-old mice were used in all experiments.
Purification and Stimulation of T Cells: Splenocytes were harvested from 4-6 week old Atm−/− mice or wild-type littermates bred in our animal facility. In some experiments C57BL/6 mice were used as a source of wild-type T cells. Red blood cells were lysed using ACK lysing buffer (Cambrex, Walkerville, Md.) for 3 minutes at room temperature. In experiments in which T cells were purified, splenocytes were incubated with anti-CD4 (GK1.5, Dialynas, et al., J. Immunol. 131:2445 (1983)) and anti-CD8 (2.43, Sarmiento, et al., J. Immunol. 125:2665 (1980)) antibodies for 30 min at 4° C. Cells were then washed and incubated with magnetic beads conjugated to anti-rat IgG antibody, prior to positive selection by MACS according to the manufacturer's instructions (Miltenyi Biotech, USA Auburn Calif.). […]

C57BL/6 T cells [1] = test: Stimulation of T cells with anti-CD3 and CD28 in the presence of KU-55933 (annexin-V/CFSE flow cytometry); format: cell-based, mouse
Procedure: Cells were then labeled for 20 minutes with 2 μM 5(6)-Carboxyfluorescein diacetate N-succinimidyl ester (CFSE, Sigma-Aldrich) in Hank's balanced salt solution (HBSS, Mediatech, Herndon, Va.). Cells were plated at a concentration of 2-5×10^6/ml in Dulbecco's modified eagle's medium (DMEM (Mediatech) supplemented with 15% heat-inactivated fetal calf serum (Sigma-Aldrich, St. Louis, Mo.), penicillin (100 U/ml), streptomycin (100 μg/ml), 2 mM L-glutamine, 10 mM Hepes, 0.1 mM nonessential amino acids, 1 mM sodium pyruvate (Mediatech) (complete DMEM). Cells were treated with 1 μg/ml anti-CD3 antibody (2C11 (30)) and 1 μg/ml anti-CD28 antibody (37.51, Gross, et al., J. Immunol. 149:380 (1992)). Cells were cultured at 37 C, 5% CO2 for the indicated time. For studies of Atm−/− T cell proliferation in response to mitogens, purified T cells were cultured with 2 μg/ml Concanavalin A or 10 ng/ml PMA and 1 μg/m ionomycin.
Stimulation of T cells in the Presence of KU-55933: T cells were purified from C57BL/6 mice (Jackson Laboratories) and re-suspended at 1.5×10^6 cells/ml in complete DMEM with 1 μg/10^6 cells anti-CD3 and CD28 and the indicated concentration of KU-55933 (KuDos Pharmaceuticals) or the same volume of DMSO (Sigma-Aldrich). Some cultures were in addition treated with 4 mM N-acetyl cysteine (Sigma-Aldrich).
Flow Cytometry: Cells were harvested, washed in HBSS and stained with Annexin-V phycoerythrin (BD Biosciences), or Annexin V-biotin (R&D Systems) in addition to streptavidin conjugated phycoerythrin according to the manufacturer's instructions. Cells were then stained with anti-CD4-APC (RM4-5, BD Biosciences) or anti-CD8-APC (53-6.7 BD Biosciences) and 7-actinomycin D (Sigma-Aldrich) or propidium iodide (Sigma-Aldrich). All analysis was performed using. FloJo software (TreeStar Inc).

C57BL/6 T cells [2] = test: Stimulation of T cells with anti-CD3 and CD28 in the presence of caffeine (annexin-V/CFSE flow cytometry); format: cell-based, mouse
Procedure: Cells were then labeled for 20 minutes with 2 μM 5(6)-Carboxyfluorescein diacetate N-succinimidyl ester (CFSE, Sigma-Aldrich) in Hank's balanced salt solution (HBSS, Mediatech, Herndon, Va.). Cells were plated at a concentration of 2-5×10^6/ml in Dulbecco's modified eagle's medium (DMEM (Mediatech) supplemented with 15% heat-inactivated fetal calf serum (Sigma-Aldrich, St. […] Cells were treated with 1 μg/ml anti-CD3 antibody (2C11 (30)) and 1 μg/ml anti-CD28 antibody (37.51, Gross, et al., J. Immunol. 149:380 (1992)). […] For studies of Atm−/− T cell proliferation in response to mitogens, purified T cells were cultured with 2 μg/ml Concanavalin A or 10 ng/ml PMA and 1 μg/m ionomycin. Stimulation of T cells in the Presence of Caffeine: […] Some cultures were, in addition, treated with 2 mM N-acetyl cysteine (Sigma-Aldrich). Flow Cytometry: Cells were harvested, washed in HBSS and stained with Annexin-V phycoerythrin (BD Biosciences), or Annexin V-biotin (R&D Systems) in addition to streptavidin conjugated phycoerythrin according to the manufacturer's instructions. Cells were then stained with anti-CD4-APC (RM4-5, BD Biosciences) or anti-CD8-APC (53-6.7 BD Biosciences) and 7-actinomycin D (Sigma-Aldrich) or propidium iodide (Sigma-Aldrich). All analysis was performed using. FloJo software (TreeStar Inc).

ATM = ATM (Homo sapiens, UniProt Q13315); conditions: cited from earlier work
ATR = ATR (Homo sapiens, UniProt Q13535); conditions: 3 mM caffeine; cited from earlier work
[3] = system: ATM targets including p53, H2AX and NBS1; conditions: cited from earlier work
[4] = system: graft vs. host disease (GVHD); test: GVHD after BMT: lethally irradiated Balb/c mice given C57BL/6 bone marrow and treated splenocytes; format: in vivo, mouse
Procedure: To test this, Balb/c mice were lethally irradiated one day prior to BMT with C57BL/6 bone marrow. 48 Hours after BMT, mice received splenocytes treated with allogeneic stimulators, allogeneic stimulators and KU55933, or no stimulators and KU55933.

alloreactive T cells = test: Cytokine production of alloreactive T cells stimulated with alloantigen; format: cell-based; conditions: treated with ATM inhibiting agent in addition to alloantigen; preliminary data
[5] = system: other PI-3 kinase-like kinase family members; conditions: cited from earlier work
[6] = C57BL/6 T cells stimulated with anti-CD3 and CD28

Chain of ATM (Q13315 whole entry, species assumed): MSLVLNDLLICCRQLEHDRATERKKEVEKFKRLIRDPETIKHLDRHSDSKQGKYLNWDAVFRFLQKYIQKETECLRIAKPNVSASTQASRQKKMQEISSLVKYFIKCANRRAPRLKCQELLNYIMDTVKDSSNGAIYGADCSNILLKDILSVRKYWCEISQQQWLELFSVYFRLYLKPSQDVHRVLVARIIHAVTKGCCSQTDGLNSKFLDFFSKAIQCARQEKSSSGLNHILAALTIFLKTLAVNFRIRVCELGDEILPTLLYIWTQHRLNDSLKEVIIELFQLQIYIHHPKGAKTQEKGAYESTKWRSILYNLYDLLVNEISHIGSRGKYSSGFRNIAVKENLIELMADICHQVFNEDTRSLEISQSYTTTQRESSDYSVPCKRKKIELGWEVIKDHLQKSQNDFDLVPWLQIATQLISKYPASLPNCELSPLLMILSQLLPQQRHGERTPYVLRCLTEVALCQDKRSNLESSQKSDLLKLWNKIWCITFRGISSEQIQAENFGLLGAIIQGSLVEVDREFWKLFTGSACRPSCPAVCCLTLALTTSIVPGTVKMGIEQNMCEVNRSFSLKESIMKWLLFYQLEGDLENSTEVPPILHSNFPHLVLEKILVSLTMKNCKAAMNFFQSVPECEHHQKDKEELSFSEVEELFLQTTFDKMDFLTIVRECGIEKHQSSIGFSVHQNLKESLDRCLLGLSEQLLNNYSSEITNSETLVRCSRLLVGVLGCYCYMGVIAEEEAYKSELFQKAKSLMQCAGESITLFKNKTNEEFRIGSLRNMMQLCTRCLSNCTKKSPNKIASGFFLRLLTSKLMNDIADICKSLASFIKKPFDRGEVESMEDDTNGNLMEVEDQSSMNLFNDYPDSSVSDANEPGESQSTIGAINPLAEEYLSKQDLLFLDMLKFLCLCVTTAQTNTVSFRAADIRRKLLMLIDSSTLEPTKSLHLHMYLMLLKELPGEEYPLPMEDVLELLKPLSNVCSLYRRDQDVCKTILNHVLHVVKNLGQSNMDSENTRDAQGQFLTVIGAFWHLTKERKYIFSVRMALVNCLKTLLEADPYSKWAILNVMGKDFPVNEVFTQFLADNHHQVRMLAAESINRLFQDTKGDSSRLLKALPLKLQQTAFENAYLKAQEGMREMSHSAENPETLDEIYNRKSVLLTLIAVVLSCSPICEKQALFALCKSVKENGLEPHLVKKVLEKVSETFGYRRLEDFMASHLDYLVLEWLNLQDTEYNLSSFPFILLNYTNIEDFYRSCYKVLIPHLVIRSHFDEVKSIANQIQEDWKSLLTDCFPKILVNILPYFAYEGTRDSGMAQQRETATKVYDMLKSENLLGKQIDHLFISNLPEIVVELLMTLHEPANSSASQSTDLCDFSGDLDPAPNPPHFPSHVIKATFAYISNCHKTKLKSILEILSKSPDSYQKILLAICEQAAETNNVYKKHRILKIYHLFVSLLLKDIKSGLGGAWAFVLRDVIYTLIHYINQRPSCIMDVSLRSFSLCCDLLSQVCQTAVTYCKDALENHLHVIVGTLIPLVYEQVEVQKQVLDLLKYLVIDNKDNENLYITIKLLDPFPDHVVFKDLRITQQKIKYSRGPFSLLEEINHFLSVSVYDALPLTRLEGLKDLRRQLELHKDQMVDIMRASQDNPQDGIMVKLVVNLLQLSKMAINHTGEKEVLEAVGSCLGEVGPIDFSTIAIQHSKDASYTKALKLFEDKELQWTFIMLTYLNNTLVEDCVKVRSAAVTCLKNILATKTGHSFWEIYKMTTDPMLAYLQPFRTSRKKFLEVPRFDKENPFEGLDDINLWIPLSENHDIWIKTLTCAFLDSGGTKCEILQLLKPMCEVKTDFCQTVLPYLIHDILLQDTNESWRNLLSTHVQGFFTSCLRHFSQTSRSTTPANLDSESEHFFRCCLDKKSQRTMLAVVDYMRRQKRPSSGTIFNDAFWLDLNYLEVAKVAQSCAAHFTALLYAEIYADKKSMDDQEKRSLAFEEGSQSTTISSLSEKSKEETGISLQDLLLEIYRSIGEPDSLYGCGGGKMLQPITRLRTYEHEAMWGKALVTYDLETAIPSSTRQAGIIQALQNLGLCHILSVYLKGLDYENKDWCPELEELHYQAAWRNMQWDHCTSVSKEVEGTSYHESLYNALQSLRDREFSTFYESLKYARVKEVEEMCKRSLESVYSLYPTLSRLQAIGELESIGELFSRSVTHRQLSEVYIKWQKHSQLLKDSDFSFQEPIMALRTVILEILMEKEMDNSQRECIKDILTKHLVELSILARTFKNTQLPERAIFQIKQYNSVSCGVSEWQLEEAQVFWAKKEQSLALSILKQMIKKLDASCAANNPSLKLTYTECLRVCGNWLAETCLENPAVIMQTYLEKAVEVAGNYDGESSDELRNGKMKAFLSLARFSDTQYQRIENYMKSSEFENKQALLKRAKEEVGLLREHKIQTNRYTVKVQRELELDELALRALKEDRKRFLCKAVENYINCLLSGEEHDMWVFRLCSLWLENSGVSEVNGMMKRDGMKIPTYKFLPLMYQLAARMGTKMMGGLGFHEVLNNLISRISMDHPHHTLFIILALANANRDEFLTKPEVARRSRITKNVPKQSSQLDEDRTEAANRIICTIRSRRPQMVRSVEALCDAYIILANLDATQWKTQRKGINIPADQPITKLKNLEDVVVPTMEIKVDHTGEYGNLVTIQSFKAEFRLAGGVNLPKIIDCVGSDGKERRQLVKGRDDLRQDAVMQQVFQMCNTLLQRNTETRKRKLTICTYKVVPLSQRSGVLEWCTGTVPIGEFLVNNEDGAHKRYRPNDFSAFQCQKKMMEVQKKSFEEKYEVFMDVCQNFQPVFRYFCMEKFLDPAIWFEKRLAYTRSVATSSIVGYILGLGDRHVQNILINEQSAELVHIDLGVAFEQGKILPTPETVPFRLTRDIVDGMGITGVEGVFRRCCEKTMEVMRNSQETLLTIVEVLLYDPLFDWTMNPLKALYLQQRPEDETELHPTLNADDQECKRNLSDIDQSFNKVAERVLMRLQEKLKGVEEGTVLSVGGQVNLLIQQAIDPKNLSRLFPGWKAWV

CC(=O)N[C@@H](CS)C(=O)O [NAC, N-acetyl cysteine]
proliferation of Atm deficient T cells, effect of NAC (Atm deficient T cells): restored the ability of Atm deficient T cells to undergo proliferation | apoptosis induced in the presence of KU-55933, effect of NAC (C57BL/6 T cells [1]; NAC added (4 mM per method), 20 μM KU-55933, anti-CD3 and CD28, normal T cells): prevented | apoptosis induced in the presence of caffeine, effect of NAC (C57BL/6 T cells [2]; 2 mM NAC added, 2.5 mM caffeine, anti-CD3 and CD28, normal T cells): prevented

Cn1c(=O)c2c(ncn2C)n(C)c1=O [caffeine]
ATM function in vitro (ATM; 1 mM caffeine): inhibit ATM | inhibition of ATM function (ATM; 3 mM caffeine): 50% | inhibition of ATR function (ATR): 50% | T cells remaining annexin-V negative (C57BL/6 T cells [2]; 2.5 mM caffeine, 48 and 72 hours after stimulation): only T cells which did not divide remained annexin-V negative | effect on cell viability (C57BL/6 T cells [2]; 2.5 mM caffeine, 24 hours, anti-CD3 and CD28): no effect | caffeine concentration (as low as) that induced T cell apoptosis (C57BL/6 T cells [2]; [6]): 1 mM | response of normal T cells exposed to anti-CD3 and anti-CD28 (C57BL/6 T cells [2]; exposed to caffeine): undergo apoptosis | frequency of T cells undergoing apoptosis with increasing concentration (C57BL/6 T cells [2]; increasing caffeine concentration, anti-CD3 and CD28): dose dependent increase

O=c1cc(-c2cccc3c2Sc2ccccc2S3)oc(N2CCOCC2)c1 [KU-55933, 2-morpholin-4-yl-6-thianthren-1-yl-pyran-4-one]
ionizing-radiation-dependent phosphorylation of known ATM targets [3]: abrogation | animals surviving long-term ([4]; recipients of splenocytes treated ex vivo with allogeneic stimulators and KU55933, given 48 hours after BMT): three out of four | development of GVHD (time) ([4]; recipients of unstimulated splenocytes treated with KU55933): 30 to 40 days | production of IL-2, IFN-g and IL-4 in response to alloantigen (alloreactive T cells): fail to produce these cytokines | inhibition of other PI-3 kinase-like kinase family members [5]: does not inhibit | T cell proliferation versus untreated controls (C57BL/6 T cells [1]; 20 μM KU-55933, 48 and 72 hours after stimulation): significantly less proliferation | effect on cell viability (C57BL/6 T cells [1]; 20 μM KU-55933, 24 hours, anti-CD3 and CD28): no effect | KU-55933 concentration (as low as) that induced T cell apoptosis (C57BL/6 T cells [1]; [6]): 10 µM | response of normal T cells exposed to anti-CD3 and anti-CD28 (C57BL/6 T cells [1]; exposed to KU-55933): undergo apoptosis | frequency of T cells undergoing apoptosis with increasing concentration (C57BL/6 T cells [1]; increasing KU-55933 concentration, anti-CD3 and CD28): dose dependent increase
